The values below come from patent US5252563A, “5,6,7,8-tetrahydro-imidazo[1,2-a]pyrimidine compounds for treatment of neurotoxic injury” (G. D. Searle & Company, priority 1991, dated 1993).

Structures can show the parent of a compound that is named as a salt.

Assay [1] has as its system NMDA receptor (N-methyl-D-aspartate-specific L-[^3 H]glutamate recognition site in synaptic plasma membranes). The assay can be described thus: NMDA-Selective Glutamate Binding Assay ([^3 H]GLU). Here is the method: (§1) Synaptic plasma membranes (SPM) were prepared as previously described [Monahan, J.B. and Michel, J., "Identification and Characterization of an N-methyl-D-aspartate-specific L[^3 H]glutamate Recognition Site in Synaptic Plasma Membranes, J. Neurochem., 48, […] (1987)]. The SPM were stored at a concentration of 10-15 mg/ml in 0.32M sucrose, 0.5 mM EDTA, 1 mM MgSO4, 5 mM Tris/SO4, pH 7.4, under liquid nitrogen. The identity and purity of the subcellular fractions were confirmed by both electron microscopy and marker enzymes. Protein concentrations were determined by using a modification of the method of Lowry [Ohnishi, S.T. and Barr, J.K., "A Simplified Method of Quantitating Proteins Using the Biuret and Phenol Reagents", anal. Biochem., 86, 193-197 (1978)]. The SPM were treated identically for the [^3 H]AMPA (QUIS), [3H]kainate and sodium-dependent L-[^3 H]-glumatate binding assays. […] Beckman MP scintillation cocktail containing 7 mL/1 acetic acid was then added and the samples counted on a Beckman LS 5800 or 3801 liquid scintillation counter with automatic corrections for quenching and counting efficiency. […] Radioligand binding to the synaptic plasma membranes was analyzed using Scatchard and Hill transformations and the Ki values of the compounds determined using logit-log transformations. […]

Assay [2] concerns the target Kainate (KA) receptor. The assay can be described thus: [^3 H]kainate (KA) receptor subclass binding assay, synaptic plasma membranes. Conditions: 0.5 nM [^3 H]kainate; SPM; pH 7.4; 0-4° C., 60 min. The procedure: as §1
Assay [3] deals with [^3 H]MK-801 binding, rat SPM (synaptic plasma membranes). The assay can be described thus: [^3 H]MK-801 Binding assay (modulation of [^3 H]MK-801 binding). Particulars: 5.0 nM [^3 H]MK-801, L-glutamate 10.0 nM; Triton X-100 treated rat SPM; pH 7.4; 25° C., 30 min. The procedure:
Modulation of [^3 H]MK-801 binding was performed using Triton X-100 (0.04% v/v) treated rat SPM that had been extensively washed. Assay incubations were at 25° C. for 30 min. and contained 5.0 nM [^3 H]MK-801, L-glutamate (10.0 nM), and various concentrations of the tested compounds in 50 mM Tris/acetate, pH 7.4. The assay was stopped by rapid filtration, using Brandel MB-48 Harvester, through Whatman GF/B filters treated with 0.05% polyethylenimine and the samples washed four times with 2.0 mL cold buffer. The radioactivity associated with the filter was determined by liquid scintillation spectrometry. Nonspecific binding was defined using 60 μM MK-801. IC50 were determined using a logit-log transformation of the binding data.

`O=C(O)c1cn2c(n1)NC(CP(=O)(O)O)CC2` (stereo not shown) [Example 2, 7-phosphonomethyl-5,6,7,8-tetrahydro-imidazo[1,2-a]pyrimidine-2-carboxylicacid]: the “[^3 H]GLU % inhibition” value in assay [1] (@ 10 μM) came to 42%.
With `O=C(O)c1cn2c(n1)NCCC2CP(=O)(O)O` (stereo not shown) [Example 1, 5-Phosphonomethyl-5,6,7,8-tetrahydro-imidazo [1,2-a]pyrimidine-2-carboxylic acid, ammonium salt], the Ki (commonly a measure of affinity in units of concentration, obtained from inhibition or displacement) is 700 nM in assay [1] (NMDA-specific L-[^3 H]glutamate 12.5 nM, Triton X-100 treated SPM, pH 7.4, 0-4° C., 10 min) and 280 nM in assay [3]. Moreover, the “KA Ki” value in assay [2] was more than 10000 nM.
